In US20230398232A1, “Composition and Use of Alternatively Formatted Anti-Mesothelin Antibodies for the Treatment of Cancer” (Navrogen, Inc., priority 2020, published 2023):
Square brackets hold non-standard residues; d marks the D form. Peptide text beside a SMILES is read from it. * marks the point of attachment. Dolaproine = CO[C@@H]([C@@H]1CCCN1)[C@@H](C)C(=O)O; Dil = CC[C@H](C)[C@H](NC)[C@@H](CC(=O)O)OC; X1 = C[C@@H](N*)[C@@H](O)c1ccccc1; NMeV = CN[C@H](C(=O)O)C(C)C

Legend:
[1] = tested on: NCI-N87, SW1990, HAY, YOU, OVCAR3 and A549 cells; experiment: Free cytotoxin cytotoxicity, crystal violet viability; type: cell-based, human; details: 72 hours, average over cell lines
Description: FIGS. 2A-C. Cytotoxic payloads and linkers examined for developing reformatted MES-1 antibody for optimal killing of immunoproficient and immunosuppressed mesothelin expressing cancer cells. FIG. 2A provides chemical structures of various types of cytotoxic payloads (i.e., microtubule inhibitors, DNA alkylating agents, topoisomerase inhibitors, and protein kinase inhibitors, see, e.g., Yaghoubi S, et al. J Cell Physiol 235:31-64, 2019; Wang R E, et al. J Am Chem Soc 137:3229-3232, 2015) tested against immunosuppressive and immunoproficient mesothelin expressing target cells. FIG. 2B provides chemical structures of various enzymatic and non-enzymatic cleavable and non-cleavable linkers tested to generate MES-ADCs against immunosuppressive and immune-proficient mesothelin expressing target cells. FIG. 2C provides an overview of the cytotoxicity of potential ADC payloads against mesothelin expressing cancer cells or control cell lines (Table 1). Briefly, 96-well tissue culture plates were seeded with 5,000 cells/well of mesothelin-positive NCI-N87 (CA125^+ gastric cancer), SW1990 (CA125^+ pancreatic cancer), HAY (CA125^+ mesothelioma), YOU (CA125^− mesothelioma), OVCAR3 (CA125^+ ovarian cancer) and A549 (mesothelin negative lung cancer) cells in 100 μLs of RPMI plus 7.5% heat inactivated fetal bovine serum (FBS), and 0.0001 to 500 ng/mL of cytotoxin or negative control. Cultures were incubated for 72 hours at 37° C. in 5% CO2 then quantified for viability using crystal violet staining. Dried stained wells were solubilized using 1% SDS in phosphate buffer saline (PBS) and quantified by colorimetric densitometry on a Varioskan™ multi-well plate reader at 570 nm. […] Experiments represent a minimum of triplicate wells. Statistical analysis was done using a two-sided Student' T-test.
To identify best candidates to meet this criteria, we first tested different classes of cytotoxins including DNA alkylating agents, microtubule inhibitors, and topoisomerase inhibitors (FIG. 2A). […]

mesothelioma = details: patients with elevated CA125 vs low CA125; cited from earlier work
follicular lymphoma = details: CA125 in normal range vs above normal range; cited from earlier work

CC[C@H](C)[C@@H]([C@@H](CC(=O)N1CCC[C@H]1[C@H](OC)[C@@H](C)C(=O)N[C@H](C)[C@@H](O)c1ccccc1)OC)N(C)C(=O)[C@@H](NC(=O)[C@@H](NC)C(C)C)C(C)C [MMAE, Monomethyl Auristatin E] (H-[NMeV]V[Dil][Dolaproine]-X1)
average EC50 [1]: 1.39 ng/mL

COc1cccc2c1C(=O)c1c(O)c3c(c(O)c1C2=O)C[C@@](O)(C(=O)CO)C[C@@H]3O[C@H]1C[C@H]2[C@H](O[C@@H]3[C@@H](OC)OCCN32)[C@H](C)O1 [PNU159682, reference compound]
average EC50 [1]: 0.014 ng/mL

CCc1c2c(nc3ccc(O)cc13)-c1cc3c(c(=O)n1C2)COC(=O)[C@]3(O)CC [SN38]
average EC50 [1]: 2.44 ng/mL

amatuximab: anti-mesothelin antibody
PFS and OS outcomes (mesothelioma): worse progression-free survival (PFS) and overall survival (OS) outcomes

rituximab: clinically used rituximab antibody
improvement in 5-year progression-free survival (follicular lymphoma): 31.4%
